Measurements reported in PubChem BioAssay (NCI).
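Test compounds were applied to cells in 96-well plates for 48 hours at 5 doses. TGI marks complete inhibition of growth.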

Experiments:
Assay in all cases: inhibition of tumour cell growth, NCI panel, 48 h
SK-MEL-2 melanoma = test system: SK-MEL-2 melanoma
NCI-H522 lung = test system: NCI-H522 lung
HT29 colon = test system: HT29 colon
MDA-MB-435 = test system: MDA-MB-435
COLO 205 colon = test system: COLO 205 colon
T-47D breast = test system: T-47D breast
PC-3 prostate = test system: PC-3 prostate
UACC-62 melanoma = test system: UACC-62 melanoma
HCT-15 colon = test system: HCT-15 colon
OVCAR-8 ovarian = test system: OVCAR-8 ovarian
HCT-116 colon = test system: HCT-116 colon
HS 578T breast = test system: HS 578T breast
SW-620 colon = test system: SW-620 colon
NCI/ADR-RES ovarian = test system: NCI/ADR-RES ovarian
EKVX NSCLC = test system: EKVX NSCLC
SNB-19 CNS = test system: SNB-19 CNS
MCF7 breast = test system: MCF7 breast
UACC-257 melanoma = test system: UACC-257 melanoma
LOX IMVI melanoma = test system: LOX IMVI melanoma
BT-549 breast = test system: BT-549 breast

Measured: TGI

O=C(/C=C/c1ccc(F)c(F)c1)OCCc1ccccc1
> 100 µM: all assays above
